Values belong to the compound of their own block, whether it stands above or below them. Activity calls are given as the source filed them. The calls are words filed in the database; no cut-off is given here.
How the values were obtained:
dHL-60 = assay: Inhibition of HOCl production in human dHL-60 cells at 20 uM incubated for 1 hrs in presence of PMA; type: functional, cell-based
Neutrophil [1] = assay: Inhibition of HOCl production in human neutrophil at 20 uM incubated for 1 hrs in presence of PMA; type: functional, cell-based
Neutrophil [2] = assay: Inhibition of MSU-induced NETosis in human neutrophil assessed as reduction in release of large DNA scaffolds at 20 uM incubated for 90 mins by sytox green staining based fluorescence microscopic analysis; type: functional, cell-based
Neutrophil [3] = assay: Inhibition of MSU-induced NETosis in human neutrophil assessed as reduction in nuclear expansion at 20 uM incubated for 90 mins by sytox green staining based fluorescence microscopic analysis; type: functional, cell-based
[4] = target: T1, Myeloperoxidase (Homo sapiens) (UniProt P05164); assay: Inhibition of human leukocyte MPO chlorinating activity using hydrogen peroxide as substrate at 20 uM preincubated for 15 mins followed by substrate addition and measured after 8 mins relative to control; conditions: time 23.0 min
T1 sequence (whole entry): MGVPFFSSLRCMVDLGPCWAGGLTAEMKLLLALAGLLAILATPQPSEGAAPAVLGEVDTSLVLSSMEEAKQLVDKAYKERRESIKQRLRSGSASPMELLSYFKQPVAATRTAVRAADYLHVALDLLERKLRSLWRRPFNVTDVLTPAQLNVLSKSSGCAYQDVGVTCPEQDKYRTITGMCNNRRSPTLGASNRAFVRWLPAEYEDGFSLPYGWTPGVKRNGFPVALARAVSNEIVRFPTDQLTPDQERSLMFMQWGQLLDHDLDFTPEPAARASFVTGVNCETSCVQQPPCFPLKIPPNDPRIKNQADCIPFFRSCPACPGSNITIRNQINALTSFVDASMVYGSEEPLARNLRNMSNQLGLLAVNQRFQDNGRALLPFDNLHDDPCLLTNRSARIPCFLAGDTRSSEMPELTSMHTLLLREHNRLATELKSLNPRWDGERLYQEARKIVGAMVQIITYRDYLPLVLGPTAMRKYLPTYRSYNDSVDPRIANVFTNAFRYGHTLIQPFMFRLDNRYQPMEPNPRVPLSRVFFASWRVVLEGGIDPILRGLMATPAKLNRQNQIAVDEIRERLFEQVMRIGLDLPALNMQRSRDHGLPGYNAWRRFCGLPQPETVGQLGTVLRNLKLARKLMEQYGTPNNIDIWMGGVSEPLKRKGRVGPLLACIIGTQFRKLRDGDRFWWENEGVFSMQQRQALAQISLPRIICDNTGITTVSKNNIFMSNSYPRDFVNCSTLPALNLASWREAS

Mus musculus [5] = assay: Anti-inflammatory activity against MSU-induced gouty arthritis in male C57BL/6 mouse model assessed as prevention of paw edema at 30 mg/kg, ip preadministered with compound for 30 mins followed by MSU administration and measured upto 4 hrs by plethysmometer; type: functional, organism-based
Mus musculus [6] = assay: Downregulation of IL-6 level in MSU-induced gouty arthritic male C57BL/6 mouse model at 30 mg/kg, ip preadministered with compound for 30 mins followed by MSU addition and measured after 6 hrs by ELISA; type: functional, organism-based; conditions: time 6.5 hrs
Mus musculus [7] = assay: Downregulation of IL-1beta level in MSU-induced gouty arthritic male C57BL/6 mouse model at 30 mg/kg, ip preadministered with compound for 30 mins followed by MSU addition and measured after 6 hrs by ELISA; type: functional, organism-based; conditions: time 6.5 hrs
Mus musculus [8] = assay: Reduction in total peroxidase activity in MSU-induced gouty arthritic male C57BL/6 mouse model at 30 mg/kg, ip preadministered with compound for 30 mins followed by MSU addition and measured after 6 hrs; type: functional, organism-based; conditions: time 6.5 hrs
[9] = target: T1, Myeloperoxidase (Homo sapiens); assay: Inhibition of human leukocyte MPO peroxidase activity using hydrogen peroxide as substrate by fluorescence based analysis
[10] = Antioxidant activity assessed as taurine chloramine scavenging activity incubated for 15 mins; type: functional
TERT-RPE1 [11] = assay: Cytotoxicity against human hTERT-RPE1 cells assessed as reduction in cell viability at 50 uM measured after 72 hrs by XTT assay; type: toxicity, cell-based; conditions: tert-rpe1, 72 h
Mus musculus [12] = assay: Anti-inflammatory activity against MSU-induced gouty arthritis in male C57BL/6 mouse model assessed as prevention of paw edema at 3 to 30 mg/kg, ip preadministered with compound for 30 mins followed by MSU administration and measured for 1 to 4 hrs by plethysmometer; type: functional, organism-based; conditions: dose 3-30 mg/kg, time lower 1.5 hrs, time upper […]
Mus musculus [13] = assay: Anti-inflammatory activity against MSU-induced gouty arthritis in male C57BL/6 mouse model assessed as prevention of paw edema at 0.3 mg/kg, ip preadministered with compound for 30 mins followed by MSU administration and measured for 4 hrs by plethysmometer; type: functional, organism-based
[14] = Reactivity of the compound in phosphate buffer at pH 7.4 assessed as compound oxidation by measuring decrease in fluorescence spectra in presence of MPO by fluorescence microplate reader; type: physicochemical
[15] = Reactivity of the compound in phosphate buffer at pH 7.4 assessed as compound oxidation by measuring decrease in fluorescence spectra in presence of H2O2 by fluorescence microplate reader; type: physicochemical
[16] = Reactivity of the compound in phosphate buffer at pH 7.4 assessed as compound oxidation by measuring decrease in fluorescence spectra in presence of MPO and chloride by fluorescence microplate reader; type: physicochemical
[17] = Reactivity of the compound in phosphate buffer at pH 7.4 assessed as compound oxidation by measuring decrease in fluorescence spectra in presence of H2O2 and chloride by fluorescence microplate reader; type: physicochemical
[18] = Reactivity with Hypochlorous acid (HOCl) in phosphate buffer at pH 7.4 assessed as fluorescence decay at 20 uM measured within 1 sec by stopped-flow spectrophotometric analysis; type: physicochemical; conditions: pH 7.4, 1 s
Mus musculus [19] = assay: Anti-inflammatory activity against MSU-induced gouty arthritis in male C57BL/6 mouse model assessed as prevention of paw edema at 3 to 30 mg/kg, ip preadministered with compound for 30 mins followed by MSU administration and measured upto 4 hrs by plethysmometer; type: functional, organism-based; conditions: dose 3-30 mg/kg
Mus musculus [20] = assay: Anti-inflammatory activity against MSU-induced gouty arthritis in male C57BL/6 mouse model assessed as inhibition of paw edema at 34 mg/kg, po preadministered with compound for 1 hrs followed by MSU administration and measured for 6 hrs by plethysmometer; type: functional, organism-based; conditions: time 7.0 hrs
[21] = target: T1, Myeloperoxidase (Homo sapiens); assay: Reversible inhibition of human leukocyte MPO using hydrogen peroxide as substrate assessed as restoration of MPO peroxidase activity at 20 uM incubated for 30 mins and measured after dilution using acetate buffer in presence of TMB
[22] = target: Poly [ADP-ribose] polymerase 1 (Homo sapiens) (UniProt P09874); assay: Inhibition of PARP1-induced ADP-ribosylation in human hTERT-RPE1 cells at 1 to 50 uM preincubated with compound for 1 hrs followed by H2O2 addition and measured after 10 mins; type: cell-based; conditions: dose 1-50 µM, time 70.0 min
Sequence of Poly [ADP-ribose] polymerase 1 (Homo sapiens) (P09874 whole entry): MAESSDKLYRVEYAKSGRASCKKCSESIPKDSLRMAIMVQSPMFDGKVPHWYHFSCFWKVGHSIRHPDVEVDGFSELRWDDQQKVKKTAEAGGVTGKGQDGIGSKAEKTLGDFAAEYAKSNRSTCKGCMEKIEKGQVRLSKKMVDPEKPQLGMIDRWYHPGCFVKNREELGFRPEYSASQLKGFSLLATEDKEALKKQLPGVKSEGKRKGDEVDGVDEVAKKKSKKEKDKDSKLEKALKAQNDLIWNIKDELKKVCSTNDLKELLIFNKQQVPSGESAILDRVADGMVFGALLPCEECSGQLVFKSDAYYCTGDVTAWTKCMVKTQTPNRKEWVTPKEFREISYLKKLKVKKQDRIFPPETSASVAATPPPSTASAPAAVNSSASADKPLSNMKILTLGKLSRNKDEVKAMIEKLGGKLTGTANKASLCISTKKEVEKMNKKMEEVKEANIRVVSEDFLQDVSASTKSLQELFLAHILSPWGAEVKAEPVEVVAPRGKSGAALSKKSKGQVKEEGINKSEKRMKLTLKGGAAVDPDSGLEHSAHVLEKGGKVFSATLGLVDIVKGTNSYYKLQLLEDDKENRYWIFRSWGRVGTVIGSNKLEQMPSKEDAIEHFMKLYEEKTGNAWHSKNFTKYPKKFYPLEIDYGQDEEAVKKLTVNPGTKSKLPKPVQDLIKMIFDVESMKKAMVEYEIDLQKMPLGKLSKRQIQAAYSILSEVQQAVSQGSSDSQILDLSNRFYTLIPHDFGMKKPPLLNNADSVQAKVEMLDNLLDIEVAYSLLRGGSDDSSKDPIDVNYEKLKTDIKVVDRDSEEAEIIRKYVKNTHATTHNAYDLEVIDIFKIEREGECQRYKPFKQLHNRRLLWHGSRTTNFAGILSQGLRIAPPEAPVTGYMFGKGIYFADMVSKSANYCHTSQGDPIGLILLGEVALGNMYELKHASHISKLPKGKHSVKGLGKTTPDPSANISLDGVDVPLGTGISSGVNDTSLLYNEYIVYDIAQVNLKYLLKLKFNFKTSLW

TERT-RPE1 [23] = assay: Cytotoxicity against human hTERT-RPE1 cells assessed as reduction in cell viability at 2 to 50 uM measured after 72 hrs by XTT assay; type: toxicity, cell-based; conditions: tert-rpe1, 72 h, dose 2-50 µM
Mus musculus [24] = assay: Anti-inflammatory activity against MSU-induced gouty arthritis in male C57BL/6 mouse model assessed as prevention of paw edema at 3 to 30 mg/kg, ip preadministered with compound for 30 mins followed by MSU administration and measured for 6 hrs by plethysmometer; type: functional, organism-based; conditions: dose 3-30 mg/kg, time 6.5 hrs
[25] = Reactivity of the compound in phosphate buffer at pH 7.4 assessed as compound oxidation by measuring decrease in fluorescence spectra in presence of MPO, H2O2 and tyrosine by fluorescence microplate reader; type: physicochemical

SMILES: CCCc1cc(=O)[nH]c(=S)[nH]1
- inhibition (dHL-60): Active
- inhibition (Neutrophil [1]): Active
- inhibition (Neutrophil [2]): Active
- inhibition (Neutrophil [3]): Active

SMILES: N#CC1=C(N)Oc2c(c(=O)sc3ccccc23)C1c1ccc(F)cc1 (centres undefined)
- inhibition [4]: inactive

SMILES: Cc1cccc(Nc2ccccc2C(=O)O)c1C
- Activity (Mus musculus [5]): Active
- Activity (Mus musculus [6]): inactive
- Activity (Mus musculus [7]): inactive
- Activity (Mus musculus [8]): inactive

SMILES: CCCOc1ccc(C2C(C#N)=C(N)SC(N)=C2C#N)cc1OC
- Activity [10]: Active

SMILES: CN(C)CCc1c(C#N)c(=O)ncn1Cc1ccccc1
- inhibition [4]: inactive
- inhibition [9]: inactive

SMILES: CCc1c(O)[nH]c2nc3ccccc3n2c1=O
- Activity (Mus musculus [19]): Active
- Activity (Mus musculus [20]): inactive
- Activity (Mus musculus [6]): inactive
- Activity (Mus musculus [7]): inactive
- Activity (Mus musculus [8]): inactive

SMILES: CCOC(=O)C(Cc1ccc(O)cc1)NC1=CC(=O)C(=O)c2ccccc21 (centres undefined)
- inhibition [4]: inactive

Continued, in another order:

- inhibition [4]: inactive
SMILES: COc1cc(/C=N/NC(=O)c2ccoc2C)ccc1OCCN1CCCCC1

- inhibition [9]: inactive
- Drug metabolism [14]: Metabolite_Notdetected
- Drug metabolism [15]: Metabolite_Notdetected
- Drug metabolism [16]: Metabolite_Detected
- Drug metabolism [17]: Metabolite_Detected
- Drug metabolism [18]: Metabolite_Detected
SMILES: CN1CCc2nc3sc(C(=O)Nc4cccc(C#N)c4)c(N)c3cc2C1
- Activity [10]: inactive
- inhibition (dHL-60): Active
- inhibition (Neutrophil [1]): Active
- inhibition (Neutrophil [2]): Active
- inhibition (Neutrophil [3]): Active
- Activity (TERT-RPE1 [11]): Toxic
- Activity (Mus musculus [12]): Active
- Activity (Mus musculus [13]): Active
- Activity (Mus musculus [6]): inactive
- Activity (Mus musculus [7]): inactive
- Activity (Mus musculus [8]): inactive

- inhibition [4]: inactive
- inhibition [9]: inactive
SMILES: O=c1c2cnc3cc(C(F)(F)F)ccc3c2sc2nncn12

- inhibition [4]: inactive
- inhibition [9]: inactive
SMILES: CCCNc1ncnc2cc(-c3ccc(OC)cc3)sc12

- inhibition [21]: Active
- inhibition [22]: inactive
- Drug metabolism [14]: Metabolite_Notdetected
- Drug metabolism [15]: Metabolite_Notdetected
- Drug metabolism [16]: Metabolite_Notdetected
- Drug metabolism [17]: Metabolite_Notdetected
- Drug metabolism [25]: Metabolite_Notdetected
SMILES: Nc1cc2c3c(cccc3c1)C(=O)N(N)C2=O
- Activity [10]: inactive
- inhibition (dHL-60): Active
- inhibition (Neutrophil [1]): Active
- inhibition (Neutrophil [2]): Active
- inhibition (Neutrophil [3]): Active
- Activity (TERT-RPE1 [23]): Non-Toxic
- Activity (Mus musculus [24]): Active
- Activity (Mus musculus [6]): inactive

- inhibition [9]: inactive
SMILES: COc1ccc(C(=O)Nc2ccc(-c3nnc(S)o3)cc2)cc1
- Activity [10]: Active
- inhibition (dHL-60): inactive
- inhibition (Neutrophil [1]): inactive
